Read-outs that look alike come from different tables or passages of the source.
Assays:
Format in all cases: in vivo
[1] = tested on: barnyardgrass (Echinochloa crus-galli); test: Test A preemergence; details: Echinochloa crus-galli, pre-emergence, 240 h; for pest or weed control at 125 g/ha: 125 g ai/ha, 0 to 100 scale where 0 is no effect and 100 is complete control; for pest or weed control at 500 g/ha: 500 g ai/ha
Procedure, shortened: (§1)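 Greenhouse, ~10 d after spray; visual injury vs untreated controls, 0 = no effect, 100 = complete control. Preemergence: directed soil spray over planted seeds. Postemergence: plants 2–10 cm, 1–2 leaf stage. Loam/sand blend. Compound in non-phytotoxic solvent with surfactant.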

[2] = tested on: giant foxtail (Setaria faberii); test: Test A preemergence; details: Setaria faberi, pre-emergence, 240 h; for pest or weed control at 125 g/ha: 125 g ai/ha; for pest or weed control at 500 g/ha: 500 g ai/ha
Procedure, shortened: as §1

Kochia (Kochia scoparia) [3] = test: Test A preemergence; details: Bassia scoparia, pre-emergence, 240 h; for pest or weed control at 500 g/ha: 500 g ai/ha
Procedure, shortened: as §1

[4] = tested on: pigweed (Amaranthus retroflexus); test: Test A preemergence; details: Amaranthus retroflexus, pre-emergence, 240 h; for pest or weed control at 125 g/ha: 125 g ai/ha; for pest or weed control at 500 g/ha: 500 g ai/ha
[5] = tested on: ragweed (common ragweed, Ambrosia elatior); test: Test A preemergence; details: Ambrosia artemisiifolia, pre-emergence, 240 h; for pest or weed control at 125 g/ha: 125 g ai/ha; for pest or weed control at 500 g/ha: 500 g ai/ha
Procedure, shortened: as §1

[6] = tested on: ryegrass, Italian (Italian ryegrass, Lolium multiflorum); test: Test A preemergence; details: Lolium multiflorum, pre-emergence, 240 h; for pest or weed control at 125 g/ha: 125 g ai/ha; for pest or weed control at 500 g/ha: 500 g ai/ha
Procedure, shortened: as §1

[7] = tested on: giant foxtail (Setaria faberii); test: Test A postemergence; details: Setaria faberi, post-emergence, 240 h, postemergence; for pest or weed control at 125 g/ha: 125 g ai/ha
Procedure, shortened: as §1

Kochia (Kochia scoparia) [8] = test: Test A postemergence; details: Bassia scoparia, post-emergence, 240 h, postemergence; for pest or weed control at 125 g/ha: 125 g ai/ha
Procedure, shortened: as §1

[9] = tested on: pigweed (Amaranthus retroflexus); test: Test A postemergence; details: Amaranthus retroflexus, post-emergence, 240 h, postemergence; for pest or weed control at 125 g/ha: 125 g ai/ha
Procedure, shortened: as §1

[10] = tested on: ryegrass, Italian (Italian ryegrass, Lolium multiflorum); test: Test A postemergence; details: Lolium multiflorum, post-emergence, 240 h, postemergence; for pest or weed control at 125 g/ha: 125 g ai/ha
Procedure, shortened: as §1

[11] = tested on: barnyardgrass (Echinochloa crus-galli); test: Test B flooded paddy test; details: Echinochloa crus-galli, Flood, 250 g ai/ha, read-out: Barnyardgrass plant response rating
Procedure, shortened: (§2)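 Greenhouse paddy pots with 2-leaf stage plants received compound by direct addition to floodwater 3 cm deep, kept at that level. Scored visually at 13–15 d versus controls (0 no effect; 100 complete control).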

rice (Oryra sativa) = test: Test B flooded paddy test; details: Oryza sativa, Flood, 250 g ai/ha, read-out: Rice plant response rating
Procedure, shortened: as §2

[12] = tested on: ducksalad (Heteranthera limosa); test: Test B flooded paddy test; details: Heteranthera limosa, Flood, 250 g ai/ha, read-out: Ducksalad plant response rating
Procedure, shortened: as §2

[13] = tested on: sedge, umbrella (small-flower umbrella sedge, Cyperus difformis); test: Test B flooded paddy test; details: Cyperus difformis, Flood, 250 g ai/ha, read-out: Sedge, Umbrella plant response rating
Procedure, shortened: as §2

[14] = scale of 0 to 100 where 0 is no effect and 100 is complete control
[15] = 0 to 100 scale where 0 is no effect and 100 is complete control

CN1C[C@H](c2cccc(C3CC3)c2)[C@@H](C(=O)Nc2ccccc2F)C1=O [Compound 815]
pest or weed control at 125 g/ha ([1]; preemergence, visual rating after approx. 10 d, read-out: Plant response rating, Barnyardgrass): 90%
pest or weed control at 500 g/ha ([1]; Preemergence, visual injury vs untreated controls after approximately 10 d, read-out: Barnyardgrass plant response rating (0 to 100 scale where 0 is no effect and 100 is complete control)): 100%
pest or weed control at 125 g/ha ([2]; preemergence, visual rating after approx. 10 d, 0 to 100 scale where 0 is no effect and 100 is complete control, read-out: Plant response rating, Foxtail, Giant): 90%
pest or weed control at 500 g/ha ([2]; Preemergence, visual injury vs untreated controls after approximately 10 d, read-out: Foxtail, Giant plant response rating (0 to 100 scale where 0 is no effect and 100 is complete control)): 100%
pest or weed control at 125 g/ha (Kochia (Kochia scoparia) [3]; 125 g ai/ha, preemergence, visual rating after approx. 10 d, 0 to 100 scale where 0 is no effect and 100 is complete control, read-out: Plant response rating, Kochia): 70%
pest or weed control at 500 g/ha (Kochia (Kochia scoparia) [3]; Preemergence, visual injury vs untreated controls after approximately 10 d, read-out: Kochia plant response rating (0 to 100 scale where 0 is no effect and 100 is complete control)): 80%
pest or weed control at 125 g/ha ([4]; preemergence, visual rating after approx. 10 d, 0 to 100 scale where 0 is no effect and 100 is complete control, read-out: Plant response rating, Pigweed): 30%
pest or weed control at 500 g/ha ([4]; Preemergence, visual injury vs untreated controls after approximately 10 d, read-out: Pigweed plant response rating (0 to 100 scale where 0 is no effect and 100 is complete control)): 50%
pest or weed control at 125 g/ha ([5]; preemergence, visual rating after approx. 10 d, 0 to 100 scale where 0 is no effect and 100 is complete control, read-out: Plant response rating, Ragweed): 0%
pest or weed control at 500 g/ha ([5]; Preemergence, visual injury vs untreated controls after approximately 10 d, read-out: Ragweed plant response rating (0 to 100 scale where 0 is no effect and 100 is complete control)): 0%
pest or weed control at 125 g/ha ([6]; preemergence, visual rating after approx. 10 d, 0 to 100 scale where 0 is no effect and 100 is complete control, read-out: Plant response rating, Ryegrass, Italian): 80%
pest or weed control at 500 g/ha ([6]; Preemergence, visual injury vs untreated controls after approximately 10 d, read-out: Ryegrass, Italian plant response rating (0 to 100 scale where 0 is no effect and 100 is complete control)): 80%
pest or weed control at 125 g/ha ([7]; visual injury rating after approximately 10 d, read-out: Foxtail, Giant plant response rating (0 to 100 scale, 0 no effect, 100 complete control)): 90%
pest or weed control at 125 g/ha (Kochia (Kochia scoparia) [8]; visual injury rating after approximately 10 d, read-out: Kochia plant response rating (0 to 100 scale, 0 no effect, 100 complete control)): 40%
pest or weed control at 125 g/ha ([9]; visual injury rating after approximately 10 d, read-out: Pigweed plant response rating (0 to 100 scale, 0 no effect, 100 complete control)): 20%
pest or weed control at 125 g/ha ([10]; visual injury rating after approximately 10 d, read-out: Ryegrass, Italian plant response rating (0 to 100 scale, 0 no effect, 100 complete control)): 60%
pest or weed control at 250 g/ha [11, 14]: 65%
pest or weed control at 250 g/ha (rice (Oryra sativa); [14]): 20%
pest or weed control at 250 g/ha [12, 14]: 75%
pest or weed control at 250 g/ha [13, 14]: 0%

CN1C[C@H](c2csc3ccccc23)[C@@H](C(=O)Nc2ccccc2F)C1=O [Compound 1114]
pest or weed control at 125 g/ha ([1]; preemergence, approx. 10 d, read-out: Barnyardgrass plant response rating): 90%
pest or weed control at 500 g/ha ([1]; preemergence, visual injury rating about 10 d after treatment, 0 to 100 scale (0 no effect, 100 complete control), read-out: Barnyardgrass plant response rating): 90%
pest or weed control at 125 g/ha ([2]; preemergence, 0 to 100 scale where 0 is no effect and 100 is complete control, approx. 10 d, read-out: Foxtail, Giant plant response rating): 90%
pest or weed control at 500 g/ha ([2]; preemergence, 0 to 100 scale where 0 is no effect and 100 is complete control, read-out: Foxtail, Giant plant response rating): 90%
pest or weed control at 500 g/ha (Kochia (Kochia scoparia) [3]; preemergence, 0 to 100 scale where 0 is no effect and 100 is complete control, read-out: Kochia plant response rating): 60%
pest or weed control at 125 g/ha ([4]; preemergence, 0 to 100 scale where 0 is no effect and 100 is complete control, approx. 10 d, read-out: Pigweed plant response rating): 0%
pest or weed control at 500 g/ha ([4]; preemergence, 0 to 100 scale where 0 is no effect and 100 is complete control, read-out: Pigweed plant response rating): 0%
pest or weed control at 125 g/ha ([5]; preemergence, 0 to 100 scale where 0 is no effect and 100 is complete control, approx. 10 d, read-out: Ragweed plant response rating): 0%
pest or weed control at 500 g/ha ([5]; preemergence, 0 to 100 scale where 0 is no effect and 100 is complete control, read-out: Ragweed plant response rating): 0%
pest or weed control at 125 g/ha ([6]; preemergence, 0 to 100 scale where 0 is no effect and 100 is complete control, approx. 10 d, read-out: Ryegrass, Italian plant response rating): 0%
pest or weed control at 500 g/ha ([6]; preemergence, 0 to 100 scale where 0 is no effect and 100 is complete control, read-out: Ryegrass, Italian plant response rating): 20%
pest or weed control at 125 g/ha ([7]; visual injury on 0 to 100 scale (0 no effect, 100 complete control), approx. 10 d, read-out: Foxtail, Giant plant response rating): 90%
pest or weed control at 500 g/ha ([7]; 500 g ai/ha, 0 to 100 scale, 0 is no effect, 100 is complete control, read-out: Foxtail, Giant plant response rating): 90%
pest or weed control at 125 g/ha (Kochia (Kochia scoparia) [8]; visual injury on 0 to 100 scale (0 no effect, 100 complete control), approx. 10 d, read-out: Kochia plant response rating): 0%
pest or weed control at 500 g/ha (Kochia (Kochia scoparia) [8]; 500 g ai/ha, 0 to 100 scale, 0 is no effect, 100 is complete control, read-out: Kochia plant response rating): 20%
pest or weed control at 125 g/ha ([9]; visual injury on 0 to 100 scale (0 no effect, 100 complete control), approx. 10 d, read-out: Pigweed plant response rating): 0%
pest or weed control at 500 g/ha ([9]; 500 g ai/ha, 0 to 100 scale, 0 is no effect, 100 is complete control, read-out: Pigweed plant response rating): 0%
pest or weed control at 125 g/ha ([10]; visual injury on 0 to 100 scale (0 no effect, 100 complete control), approx. 10 d, read-out: Ryegrass, Italian plant response rating): 0%
pest or weed control at 500 g/ha ([10]; 500 g ai/ha, 0 to 100 scale, 0 is no effect, 100 is complete control, read-out: Ryegrass, Italian plant response rating): 40%
pest or weed control at 250 g/ha [11, 15]: 45%
pest or weed control at 250 g/ha (rice (Oryra sativa); [15]): 0%
pest or weed control at 250 g/ha [12, 15]: 85%
pest or weed control at 250 g/ha [13, 15]: 0%

— patent publication US12077503B2, “Substituted cyclic amides and their use as herbicides” (FMC CORPORATION, priority 2015, dated 2024)
